In one experiment the test system is ERK2. In words: ERK phosphorylation, Western immunoblotting. The note with it: 10 nM, 30 min.
The next experiment deals with T1, full-length human ERα (Homo sapiens, UniProt P03372).
T1 sequence (P03372 1-595): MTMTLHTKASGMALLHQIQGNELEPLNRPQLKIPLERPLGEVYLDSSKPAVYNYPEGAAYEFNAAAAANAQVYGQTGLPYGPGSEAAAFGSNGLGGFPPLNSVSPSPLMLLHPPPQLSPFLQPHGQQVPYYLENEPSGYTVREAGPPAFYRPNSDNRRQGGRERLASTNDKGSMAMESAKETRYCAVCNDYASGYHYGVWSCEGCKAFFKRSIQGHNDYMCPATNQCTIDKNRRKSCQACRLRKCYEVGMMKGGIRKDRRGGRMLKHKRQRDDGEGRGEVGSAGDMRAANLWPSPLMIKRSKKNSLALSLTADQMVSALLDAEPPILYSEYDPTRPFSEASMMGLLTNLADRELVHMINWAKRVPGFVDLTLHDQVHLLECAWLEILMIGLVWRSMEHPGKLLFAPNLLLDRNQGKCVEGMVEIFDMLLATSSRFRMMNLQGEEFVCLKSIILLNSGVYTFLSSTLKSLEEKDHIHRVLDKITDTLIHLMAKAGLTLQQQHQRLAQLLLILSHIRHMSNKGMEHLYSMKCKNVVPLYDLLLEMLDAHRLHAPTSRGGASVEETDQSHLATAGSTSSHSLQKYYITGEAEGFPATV
The experiment can be described thus: Fluorescence polarization-based competitive binding assay, ERα. In general terms: Polarisation of emitted light reports the rotation of a fluorescent probe.

The next experiment deals with full-length human ERβ (Homo sapiens, UniProt Q92731). The experiment can be described thus: Fluorescence polarization-based competitive binding assay, ERβ.
Experiment [1] deals with rat primary hippocampal neurons. In words: Neuroprotection against glutamate-induced neurotoxicity, LDH release. The experiment is classed as cell-based. For orientation: LDH in the medium is a marker of cell lysis.
Experiment [2] shares this test system. The experiment can be described thus: Neuroprotection against glutamate-induced neurotoxicity, calcein AM staining. The experiment is classed as cell-based. From the text:
The combined use of Calcein AM and Ethidium Homodimer-1 (Molecular Probes, Inc., Eugene, Oreg.) provides a two-color fluorescence analysis that allows simultaneous determination of live and dead cells with two probes that measure two recognized parameters of cell viability respectively, intracellular esterase activity and plasma membrane integrity. Calcein AM is a fluorogenic esterase substrate that enters the live cells through permeability and is enzymatically hydrolyzed to form the polyanionic dye calcein, which is well retained within live cells due to the intact plasma membranes and produces an intense uniform green fluorescence at 530 nm. Ethidium homodimer is excluded from live cells and only able to enter cells through compromised plasma membranes and binds to nucleic acid by intercalating between the base pairs, producing a bright red fluorescence at 645 nm. Therefore, Calcein AM and ethidium homodimer serve as two indicators for the identification of live and dead cells respectively.
Cultures were rinsed with phosphate-buffered saline (PBS) and incubated with the combined 1 μM calcein AM and 2 μM ethidium homodimer PBS solution at room temperature for 30 min. The fluorescence intensities were measured on a SpectraMax GEMINI EM dual-wavelength-scanning microplate spectrofluometer (Molecular Devices Corp., Sunnyvale, Calif.) using appropriate excitation and emission filter combinations (485/530 nm for calcein AM and 530/645 nm for ethidium homodimer).

The subject of another experiment is MCF-7 cells. The experiment can be described thus: MCF-7 cell proliferation, MTT. The note with it: 3 days, serially diluted concentrations, MTT at 570 nm. The experiment is classed as cell-based, human.
The subject of a further experiment is Bcl-2. In words: Bcl-2 expression, Western immunoblotting. The note with it: 100 nM, 48 h. (A western blot detects proteins with antibodies after separation by electrophoresis.)
The subject of the next experiment is spinophilin. In words: Spinophilin expression in hippocampal neurons. The note with it: 100 nM, 48 h.
For experiment [3], the system named is rat primary hippocampal neurons. In words: Neuroprotective efficacy (NE) against glutamate-induced neurotoxicity over time. The class given is cell-based. As to conditions: for Neuroprotective efficacy 2 hours after glutamate exposure / Neuroprotective efficacy 5 hours after glutamate exposure / Neuroprotective efficacy 7.5 hours after glutamate exposure / Neuroprotective efficacy 10 minutes after glutamate exposure: glutamate 200 μM; for time course of neuroprotection: early vs later time points after glutamate. How it is done: FIGS. 13A-E are graphs showing the neuroprotective efficacy of NS2 (FIG. 13A); NS1-1 (FIG. 13B); NS1-2 (FIG. 13C); NS1-3 (FIG. 13D); and NS1-4 (FIG. 13E) against glutamate-induced neurotoxicity in rat primary hippocampal neurons as a function of time and concentration (nM).
The assay for evaluating neuroprotective efficacy after glutamate exposure is discussed above. The following compounds were evaluated: NS2; NS1-1; NS1-2; NS1-3; and NS1-4. The results are shown in the Tables 4-8 and are presented graphically in FIGS. 13A-E.
Results are presented as neuroprotective efficacy (NE), which is defined as the percentage of neurotoxin-induced toxicity prevented by the test compounds (or combinations) and quantified by the equation:
NE=(Vtreatment−Vneurotoxin)/(Vcontrol−Vneurotoxin)*100%
where Vtreatment is the individual value from the test compounds (or combinations)-treated cultures, Vneurotoxin is a mean value from glutamate treated cultures, and Vcontrol is a mean value from vehicle-treated control cultures.

SMILES strings stand for the structures. pIC50: −log10 of the molar value.

Chain of full-length human ERβ (Q92731 whole entry): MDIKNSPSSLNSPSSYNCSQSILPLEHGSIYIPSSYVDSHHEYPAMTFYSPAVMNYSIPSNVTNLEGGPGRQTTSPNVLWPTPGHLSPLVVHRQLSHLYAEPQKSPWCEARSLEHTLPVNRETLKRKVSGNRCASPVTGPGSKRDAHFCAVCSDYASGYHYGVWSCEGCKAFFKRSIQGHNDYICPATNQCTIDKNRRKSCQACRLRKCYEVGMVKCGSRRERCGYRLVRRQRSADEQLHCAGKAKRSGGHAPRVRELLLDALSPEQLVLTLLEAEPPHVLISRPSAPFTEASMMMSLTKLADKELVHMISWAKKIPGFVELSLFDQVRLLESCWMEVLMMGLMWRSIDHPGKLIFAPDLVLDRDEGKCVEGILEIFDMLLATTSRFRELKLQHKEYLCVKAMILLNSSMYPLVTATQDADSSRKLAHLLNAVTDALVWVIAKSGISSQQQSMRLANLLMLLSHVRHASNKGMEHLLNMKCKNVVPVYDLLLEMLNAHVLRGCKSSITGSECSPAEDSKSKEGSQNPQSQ

For `C[C@]12CC[C@@H]3c4ccc(O)cc4CC[C@H]3[C@@H]1CC[C@@H]2O` [17β-estradiol], the “increase in ERK2 phosphorylation compared to vehicle” value with ERK2 is reported as 38.0±7.7%.
Regarding `CC(C)CCC[C@@H](C)CCC[C@@H](C)CCC[C@@H]1Cc2cc(O)ccc2C2CC[C@@]3(C)C(CC[C@@H]3O)C21` (stereo partly drawn) [NS1, 7α-[(4R,8R)-4,8,12-trimethyltridecyl]estra-1,3,5-trien-3,17β-diol], the values for the pIC50 at full-length human ERα and at full-length human ERβ (competition with EL Red) were 6.71 and 6.57, respectively. In addition, in [1], the “less potency than 17β-estradiol and ICI 182,780 in neuroprotection” value is given as 10 fold. The “increase in neuronal membrane integrity compared with glutamate alone (LDH release)” value came out at 38.6±3.8% in experiment [1] (1 nM), 44.1±3.8% in experiment [1] (10 nM), 67.0±4.0% in experiment [1] (100 nM) and 59.1±3.7% in [1] (1000 nM). The “increase in neuronal metabolic viability compared with glutamate alone (calcein AM)” value in experiment [2] (1 nM) is reported as 2.7±3.2%; in experiment [2] (10 nM), 9.3±3.7%; in experiment [2] (100 nM) it was 28.4±3.2%; in [2] (1000 nM), 25.6±4.4%. Besides, the MCF-7 cell proliferation result with MCF-7 cells is “does not induce MCF-7 cell proliferation”. In the experiment on Bcl-2, the “increase in Bcl-2 expression compared to vehicle” value is 23.4±6.8%. Moreover, the “increase in spinophilin expression compared to vehicle” value in the experiment with spinophilin worked out at 61.7±8.2%.
With `CCCCCCCCCCCCCCCC[C@@H]1Cc2cc(O)ccc2C2CC[C@@]3(C)C(CC[C@@H]3O)C21` (stereo partly drawn) [NS1-1], the “Neuroprotective efficacy 2 hours after glutamate exposure” value (“Neuroprotective efficacy 2 hours” below) in experiment [3] (1 nM) turned out to be 12.7957%; in experiment [3] (10 nM), 41.8183%; in experiment [3] (100 nM), 77.2530%; in experiment [3] (1000 nM) it was 70.8102%. For the same compound, the “Neuroprotective efficacy 5 hours after glutamate exposure” value worked out at 3.769% in [3] (1 nM), 20.8614% in experiment [3] (10 nM), 23.8415% in [3] (100 nM) and 11.9900% in experiment [3] (1000 nM). In addition, the “time course of neuroprotection” value in experiment [3] is reported as “neuroprotective at early time points with diminished protection at later time points”.
`C[C@]12CCC3c4ccc(O)cc4C[C@@H](CCCCCCCCCCCCCCCCO)C3C1CC[C@@H]2O` (stereo partly drawn) [NS1-2]: the “Neuroprotective efficacy 2 hours” value in experiment [3] (1 nM) stood at 17.5192%; in [3] (10 nM), 51.3940%; in [3] (100 nM), 32.3028%; in [3] (1000 nM), 24.9982%. Also, the “Neuroprotective efficacy 7.5 hours after glutamate exposure” value (from here on “Neuroprotective efficacy 7.5 hours”) turned out to be 26.5265% in [3] (1 nM), 76.6877% in [3] (10 nM), 93.0520% in [3] (100 nM) and 47.1665% in [3] (1000 nM). The “time course of neuroprotection” value in experiment [3] was “neuroprotective at early time points and increases in magnitude at later time points”.
As to `C[C@]12CCC3c4ccc(O)cc4C[C@@H](CCCCCCCCCCCCCCCCOCc4ccccc4)C3C1CC[C@@H]2O` (stereo partly drawn) [NS1-3], the “Neuroprotective efficacy 2 hours” value in [3] (1 nM) worked out at 15.44%; in [3] (10 nM), 55.77%; in [3] (100 nM), 87.33%; in experiment [3] (1000 nM) it was 78.43%. Further, the “Neuroprotective efficacy 7.5 hours” value in experiment [3] (1 nM) is recorded as 8.102%; in experiment [3] (10 nM), 28.06%; in experiment [3] (100 nM) it was 51.87%; in [3] (1000 nM) it was 53.3893%. In experiment [3], the “time course of neuroprotection” value is recorded as “neuroprotective at early time points with diminished protection at later time points”.
For the compound `CC(C)CCC[C@@H](C)CCC[C@@H](C)CCC[C@H](C)CC[C@@H]1Cc2cc(O)ccc2C2CC[C@@]3(C)C(CC[C@@H]3O)C21` (stereo partly drawn) [NS1-4], the “Neuroprotective efficacy 2 hours” value in [3] (1 nM) is 51.86%; in experiment [3] (10 nM) it was 86.27%; in experiment [3] (100 nM) it was 110.3902%; in experiment [3] (1000 nM), 94.3991%. The “Neuroprotective efficacy 7.5 hours” value was determined as 8.415% in experiment [3] (1 nM), 28.8% in [3] (10 nM), 69.76% in experiment [3] (100 nM) and 38.0418% in [3] (1000 nM). Also, the “time course of neuroprotection” value in experiment [3] was “neuroprotective at early time points with diminished protection at later time points”.
In the case of `CC(C)=CCC/C(C)=C/CC/C(C)=C/CC1=C(c2ccc(O)cc2)C(=O)c2ccc(O)cc2C1=O` [NS2], the “Neuroprotective efficacy 10 minutes after glutamate exposure” value is listed as −10.3103% in experiment [3] (1 nM), −3.6302% in experiment [3] (10 nM), 33.68% in experiment [3] (100 nM) and 40.51% in [3] (1000 nM). Also, the “Neuroprotective efficacy 2 hours” value is recorded as 3.937% in experiment [3] (1 nM), 30.96% in experiment [3] (10 nM), 68.16% in experiment [3] (100 nM) and 73.84% in [3] (1000 nM). For the same compound, the “Neuroprotective efficacy 5 hours after glutamate exposure” value amounted to 24.94% in [3] (1 nM), 44% in experiment [3] (10 nM), 71.35% in experiment [3] (100 nM) and 76.45% in experiment [3] (1000 nM). In addition, the “time course of neuroprotection” value in experiment [3] is “neuroprotective at early time points and increases in magnitude at later time points”.
For `CC(=O)[C@H]1CC[C@H]2[C@@H]3CCC4=CC(=O)CC[C@]4(C)[C@H]3CC[C@]12C` [progesterone, reference compound], the “binding to ERα” value at full-length human ERα (negative control) is “does not bind”. On full-length human ERβ (negative control), the “binding to ERβ” value was “does not bind”.

These data come from US20080200441A1, “ESTROGEN RECEPTOR MODULATORS ASSOCIATED PHARMACEUTICAL COMPOSITIONS AND METHODS OF USE” (University of Southern California, priority 2007, published 2008).
